≈ marks a conversion by molar mass, not a printed value.
How the values were obtained:
Assay type in all cases: functional
Enterococcus faecium [1] = experiment: Antibacterial activity against linezolid-resistant Enterococcus faecium 03B1073 by broth microdilution method
Enterococcus faecium [2] = experiment: Antibacterial activity against linezolid-resistant Enterococcus faecium 03B1074 by broth microdilution method
Staphylococcus aureus [3] = experiment: Antibacterial activity against […] Staphylococcus aureus ATCC 29213 by broth microdilution method
Staphylococcus aureus [4] = experiment: Antibacterial activity against linezolid-resistant Staphylococcus aureus 01A1220 by broth microdilution method
Staphylococcus aureus [5] = experiment: Antibacterial activity against linezolid-resistant Staphylococcus aureus 01A1221 by broth microdilution method
Enterococcus faecium [6] = experiment: Antibacterial activity against linezolid-resistant Enterococcus faecium 03B1076 by broth microdilution method
Enterococcus faecalis [7] = experiment: Antibacterial activity against linezolid-resistant Enterococcus faecalis 03A1128 by broth microdilution method
Enterococcus faecium [8] = experiment: Antibacterial activity against linezolid-resistant Enterococcus faecium 03B1075 by broth microdilution method
Enterococcus faecium [9] = experiment: Antibacterial activity against linezolid-resistant Enterococcus faecium 03B1078 by broth microdilution method
Enterococcus faecium [10] = experiment: Antibacterial activity against linezolid-resistant Enterococcus faecium 03B1077 by broth microdilution method
Enterococcus faecalis [11] = experiment: Antibacterial activity against […] Enterococcus faecalis ATCC 29212 by broth microdilution method
Corynebacterium sp. = experiment: Antibacterial activity against Corynebacterium sp. by broth microdilution method
Streptococcus pneumoniae [12] = experiment: Antibacterial activity against penicillin-nonsusceptible Streptococcus pneumoniae clinical isolate by broth microdilution method
[13] = test system: Staphylococcus epidermidis; experiment: Antibacterial activity against methicillin-susceptible Staphylococcus epidermidis clinical isolate by broth microdilution method
Staphylococcus aureus [14] = experiment: Antibacterial activity against methicillin-susceptible Staphylococcus aureus clinical isolate by broth microdilution method
Enterococcus faecium [15] = experiment: Antibacterial activity against vancomycin-susceptible Enterococcus faecium clinical isolate by broth microdilution method
Streptococcus pneumoniae [16] = experiment: Antibacterial activity against penicillin-susceptible Streptococcus pneumoniae clinical isolate by broth microdilution method
Enterococcus faecium [17] = experiment: Antibacterial activity against vancomycin-resistant Enterococcus faecium clinical isolate by broth microdilution method
Enterococcus faecalis [18] = experiment: Antibacterial activity against vancomycin-susceptible Enterococcus faecalis clinical isolate by broth microdilution method
Staphylococcus = experiment: Antibacterial activity against coagulase-negative Staphylococcus clinical isolate by broth microdilution method
Listeria monocytogenes = experiment: Antibacterial activity against Listeria monocytogenes clinical isolate by broth microdilution method
Enterococcus faecalis [19] = experiment: Antibacterial activity against vancomycin-resistant Enterococcus faecalis clinical isolate by broth microdilution method
Staphylococcus aureus [20] = experiment: Antibacterial activity against methicillin-resistant Staphylococcus aureus clinical isolate by broth microdilution method
Moraxella catarrhalis = experiment: Antibacterial activity against Moraxella catarrhalis clinical isolate by broth microdilution method
Haemophilus influenzae = experiment: Antibacterial activity against Haemophilus influenzae clinical isolate by broth microdilution method

Work on `O=C(N[C@H](CO)[C@H](O)c1ccc([N+](=O)[O-])cc1)C(Cl)Cl` [CHLORAMPHENICOL] yielded an MIC (Enterococcus faecium [1]) of 8 µg/mL (≈ 24.8 µM), an MIC (Enterococcus faecium [2]) of 32 µg/mL (≈ 99 µM) and an MIC (Staphylococcus aureus [3]) of 8 µg/mL (≈ 24.8 µM). For the same molecule, the MIC (Staphylococcus aureus [4]) was greater than 32 µg/mL, the MIC (Staphylococcus aureus [5]) was 32 µg/mL (≈ 99 µM) and the MIC (Enterococcus faecium [6]) was 32 µg/mL (≈ 99 µM). It also gave an MIC (Enterococcus faecalis [7]) greater than 32 µg/mL, an MIC (Enterococcus faecium [8]) of 32 µg/mL (≈ 99 µM) and an MIC (Enterococcus faecium [9]) of 16 µg/mL (≈ 49.5 µM). It also gave an MIC (Enterococcus faecium [10]) of 8 µg/mL (≈ 24.8 µM) and an MIC (Enterococcus faecalis [11]) of 8 µg/mL (≈ 24.8 µM).

In the case of `CN[C@H](CC(C)C)C(=O)N[C@H]1C(=O)N[C@@H](CC(N)=O)C(=O)N[C@H]2C(=O)N[C@H]3C(=O)N[C@H](C(=O)N[C@H](C(=O)O)c4cc(O)cc(O)c4-c4cc3ccc4O)[C@H](O)c3ccc(c(Cl)c3)Oc3cc2cc(c3O[C@@H]2O[C@H](CO)[C@@H](O)[C@H](O)[C@H]2O[C@H]2C[C@](C)(N)[C@H](O)[C@H](C)O2)Oc2ccc(cc2Cl)[C@H]1O` [VANCOMYCIN], the MIC (Enterococcus faecium [1]) is reported as greater than 32 µg/mL, the MIC (Enterococcus faecium [2]) is reported as greater than 32 µg/mL and the MIC50 (Corynebacterium sp.) is reported as 0.5 µg/mL (≈ 0.345 µM). It also gave an MIC90 (Corynebacterium sp.) of 1 µg/mL (≈ 0.69 µM), an MIC50 (Streptococcus pneumoniae [12]) of 0.25 µg/mL (≈ 0.173 µM) and an MIC90 (Streptococcus pneumoniae [12]) of 0.25 µg/mL (≈ 0.173 µM). For the same molecule, the MIC50 [13] was 1 µg/mL (≈ 0.69 µM), the MIC90 [13] was 2 µg/mL (≈ 1.38 µM) and the MIC50 (Staphylococcus aureus [14]) was 0.5 µg/mL (≈ 0.345 µM). For the same molecule, the MIC90 (Staphylococcus aureus [14]) was 1 µg/mL (≈ 0.69 µM), the MIC50 (Enterococcus faecium [15]) was 1 µg/mL (≈ 0.69 µM) and the MIC90 (Enterococcus faecium [15]) was 1 µg/mL (≈ 0.69 µM). For the same molecule, the MIC (Streptococcus pneumoniae [16]) was 0.25 µg/mL (≈ 0.173 µM), the MIC50 (Streptococcus pneumoniae [16]) was 0.25 µg/mL (≈ 0.173 µM) and the MIC90 (Streptococcus pneumoniae [16]) was 0.25 µg/mL (≈ 0.173 µM). The MIC50 (Enterococcus faecium [17]) was greater than 32 µg/mL, the MIC90 (Enterococcus faecium [17]) was greater than 32 µg/mL and the MIC50 (Enterococcus faecalis [18]) was 2 µg/mL (≈ 1.38 µM). It also gave an MIC90 (Enterococcus faecalis [18]) of 4 µg/mL (≈ 2.76 µM), an MIC50 (Staphylococcus) of 2 µg/mL (≈ 1.38 µM) and an MIC90 (Staphylococcus) of 2 µg/mL (≈ 1.38 µM). The MIC (Listeria monocytogenes) was 1 µg/mL (≈ 0.69 µM), the MIC50 (Listeria monocytogenes) was 1 µg/mL (≈ 0.69 µM) and the MIC90 (Listeria monocytogenes) was 1 µg/mL (≈ 0.69 µM). The MIC (Enterococcus faecalis [7]) was 1 µg/mL (≈ 0.69 µM), the MIC50 (Enterococcus faecalis [19]) was greater than 32 µg/mL and the MIC90 (Enterococcus faecalis [19]) was greater than 32 µg/mL. For the same molecule, the MIC (Enterococcus faecium [8]) was greater than 32 µg/mL, the MIC (Enterococcus faecium [9]) was greater than 32 µg/mL and the MIC (Enterococcus faecium [10]) was greater than 32 µg/mL. The MIC (Enterococcus faecalis [11]) was 2 µg/mL (≈ 1.38 µM), the MIC50 (Staphylococcus aureus [20]) was 1 µg/mL (≈ 0.69 µM) and the MIC90 (Staphylococcus aureus [20]) was 2 µg/mL (≈ 1.38 µM).

In the case of `CC1(C)S[C@@H]2[C@H](NC(=O)[C@H](N)c3ccc(O)cc3)C(=O)N2[C@H]1C(=O)O` [AMOXICILLIN], the MIC50 (Moraxella catarrhalis) is reported as 1 µg/mL (≈ 2.74 µM), the MIC90 (Moraxella catarrhalis) is reported as 8 µg/mL (≈ 21.9 µM) and the MIC50 (Haemophilus influenzae) is reported as 2 µg/mL (≈ 5.47 µM). For the same molecule, the MIC90 (Haemophilus influenzae) was 32 µg/mL (≈ 87.6 µM).

Reference: ChEMBL document CHEMBL1255373, “In vitro antibacterial activity of CE-156811, a novel analog derived from hygromycin A” (2008)
